Read-outs that look alike come from different tables or passages of the source.
Key:
[1] = test system: maximal electroshock-induced seizures; test: Maximal electroshock-induced seizures (MES); format: in vivo, mice; details: for ED50: Mus musculus, mice, tonic hindlimb extensor response, corneal electrodes 50 mA; for activity against maximal electroshock (MES): statement in words, refers to Table 3
Procedure: Maximal Electroshock-induced Seizures
Seizures were induced by application of current (50 mA, 60 pulses/sec, 0.8 sec pulse width, 1 sec duration, d.c.) through saline-coated corneal electrodes using a Ugo Basile ECT device (Model 7801). […] A tonic seizure was defined as a hindlimb extension in excess of 90 degrees from the plane of the body. Results were treated in a quantal manner.

NR1A/NR2A NMDA receptor = NR1A/NR2A NMDA receptor (Rattus norvegicus, UniProt P35439+Q00959); test: Electrophysiological assay, cloned NMDA receptor subunits expressed in Xenopus oocytes (1A/2A); format: cell-based
NR1A/NR2A NMDA receptor, sequence (Q00959 20-1464 limits assumed, other chains not shown): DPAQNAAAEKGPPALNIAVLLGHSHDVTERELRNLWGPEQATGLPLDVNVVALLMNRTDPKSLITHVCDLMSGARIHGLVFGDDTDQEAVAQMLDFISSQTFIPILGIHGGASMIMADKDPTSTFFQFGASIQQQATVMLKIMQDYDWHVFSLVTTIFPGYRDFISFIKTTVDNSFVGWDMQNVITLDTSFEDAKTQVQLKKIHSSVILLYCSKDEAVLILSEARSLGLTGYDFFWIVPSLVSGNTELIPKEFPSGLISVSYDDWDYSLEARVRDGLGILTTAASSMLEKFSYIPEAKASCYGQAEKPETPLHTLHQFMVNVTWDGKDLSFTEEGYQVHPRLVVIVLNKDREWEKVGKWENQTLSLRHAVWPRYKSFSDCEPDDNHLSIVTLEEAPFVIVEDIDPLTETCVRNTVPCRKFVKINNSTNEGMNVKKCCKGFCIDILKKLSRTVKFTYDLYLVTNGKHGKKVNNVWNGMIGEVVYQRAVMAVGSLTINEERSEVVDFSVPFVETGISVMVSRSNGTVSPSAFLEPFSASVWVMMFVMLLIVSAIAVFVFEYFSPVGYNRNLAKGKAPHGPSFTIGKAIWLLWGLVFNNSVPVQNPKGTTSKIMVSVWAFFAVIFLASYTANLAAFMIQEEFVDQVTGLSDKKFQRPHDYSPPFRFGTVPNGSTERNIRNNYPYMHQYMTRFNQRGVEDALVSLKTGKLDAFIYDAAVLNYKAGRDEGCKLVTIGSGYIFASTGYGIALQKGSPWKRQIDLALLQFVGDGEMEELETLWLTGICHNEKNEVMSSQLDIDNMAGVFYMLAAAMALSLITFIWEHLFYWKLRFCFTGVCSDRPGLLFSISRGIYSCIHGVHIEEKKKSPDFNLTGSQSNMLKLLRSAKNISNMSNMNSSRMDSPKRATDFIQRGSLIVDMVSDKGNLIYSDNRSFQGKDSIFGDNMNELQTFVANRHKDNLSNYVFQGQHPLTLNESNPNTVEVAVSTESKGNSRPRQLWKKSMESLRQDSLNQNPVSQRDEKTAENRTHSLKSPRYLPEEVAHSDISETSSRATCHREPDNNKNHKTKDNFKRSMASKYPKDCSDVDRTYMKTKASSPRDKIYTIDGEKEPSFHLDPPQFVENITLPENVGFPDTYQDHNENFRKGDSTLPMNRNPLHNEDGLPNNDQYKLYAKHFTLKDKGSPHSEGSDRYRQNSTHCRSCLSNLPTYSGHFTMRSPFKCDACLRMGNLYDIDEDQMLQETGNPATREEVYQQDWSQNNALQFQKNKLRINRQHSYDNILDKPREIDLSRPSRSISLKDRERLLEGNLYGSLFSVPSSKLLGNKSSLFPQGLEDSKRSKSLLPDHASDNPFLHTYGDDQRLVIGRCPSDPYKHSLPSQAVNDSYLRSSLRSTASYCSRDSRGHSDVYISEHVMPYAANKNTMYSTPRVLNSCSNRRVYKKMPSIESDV
Source text: (§1) Electrophysiological Assays at NMDA Receptor Subunits
(§2) cDNA clones encoding the NR1A, NR2A, NR2B, NR2C and NR2D rat NMDA receptor subtypes were provided by Dr. P. H. Seeburg (see, Moriyoshi et al., Nature (Lond.) 354:31-37 (1991); Kutsuwada et al., Nature (Lond.) 358:36-41 (1992) Monyer et al., Science (Washington, D.C.) 256:1217-1221 (1992); Ikeda et al., FEBS Lett. 313:34-38 (1992); Ishii et al., J. Biol. Chem. 268:2836-2843 (1993) for details of these clones or their mouse homologs). The clones were transformed into appropriate host bacteria and plasmid preparations were made with conventional DNA purification techniques. […]
(§3) Electrical recordings were made using a conventional two-electrode voltage clamp (Dagan TEV-200) over periods ranging between 3-21 days following injection. […] Inhibitory potency of the novel antagonists was assessed on responses elicited by fixed concentrations of glutamate and glycine, by measuring reductions in current induced by progressively increasing concentrations of antagonist. […]
(§4) in which Icontrol is the current evoked by agonists alone, pIC50=−log IC50, IC50 is the concentration of antagonist that produces half maximal inhibition, and n is the slope factor. […] For incomplete curves analysis by fitting was unreliable and IC50 values were calculated by simple regression over linear portions of the curves (Origin: Microcal Software).

NR1A/NR2B NMDA receptor = NR1A/NR2B NMDA receptor (Rattus norvegicus, UniProt P35439+Q00960); test: Electrophysiological assay, cloned NMDA receptor subunits expressed in Xenopus oocytes (1A/2B); format: cell-based
NR1A/NR2B NMDA receptor, sequence (Q00960 27-1482, other chains not shown): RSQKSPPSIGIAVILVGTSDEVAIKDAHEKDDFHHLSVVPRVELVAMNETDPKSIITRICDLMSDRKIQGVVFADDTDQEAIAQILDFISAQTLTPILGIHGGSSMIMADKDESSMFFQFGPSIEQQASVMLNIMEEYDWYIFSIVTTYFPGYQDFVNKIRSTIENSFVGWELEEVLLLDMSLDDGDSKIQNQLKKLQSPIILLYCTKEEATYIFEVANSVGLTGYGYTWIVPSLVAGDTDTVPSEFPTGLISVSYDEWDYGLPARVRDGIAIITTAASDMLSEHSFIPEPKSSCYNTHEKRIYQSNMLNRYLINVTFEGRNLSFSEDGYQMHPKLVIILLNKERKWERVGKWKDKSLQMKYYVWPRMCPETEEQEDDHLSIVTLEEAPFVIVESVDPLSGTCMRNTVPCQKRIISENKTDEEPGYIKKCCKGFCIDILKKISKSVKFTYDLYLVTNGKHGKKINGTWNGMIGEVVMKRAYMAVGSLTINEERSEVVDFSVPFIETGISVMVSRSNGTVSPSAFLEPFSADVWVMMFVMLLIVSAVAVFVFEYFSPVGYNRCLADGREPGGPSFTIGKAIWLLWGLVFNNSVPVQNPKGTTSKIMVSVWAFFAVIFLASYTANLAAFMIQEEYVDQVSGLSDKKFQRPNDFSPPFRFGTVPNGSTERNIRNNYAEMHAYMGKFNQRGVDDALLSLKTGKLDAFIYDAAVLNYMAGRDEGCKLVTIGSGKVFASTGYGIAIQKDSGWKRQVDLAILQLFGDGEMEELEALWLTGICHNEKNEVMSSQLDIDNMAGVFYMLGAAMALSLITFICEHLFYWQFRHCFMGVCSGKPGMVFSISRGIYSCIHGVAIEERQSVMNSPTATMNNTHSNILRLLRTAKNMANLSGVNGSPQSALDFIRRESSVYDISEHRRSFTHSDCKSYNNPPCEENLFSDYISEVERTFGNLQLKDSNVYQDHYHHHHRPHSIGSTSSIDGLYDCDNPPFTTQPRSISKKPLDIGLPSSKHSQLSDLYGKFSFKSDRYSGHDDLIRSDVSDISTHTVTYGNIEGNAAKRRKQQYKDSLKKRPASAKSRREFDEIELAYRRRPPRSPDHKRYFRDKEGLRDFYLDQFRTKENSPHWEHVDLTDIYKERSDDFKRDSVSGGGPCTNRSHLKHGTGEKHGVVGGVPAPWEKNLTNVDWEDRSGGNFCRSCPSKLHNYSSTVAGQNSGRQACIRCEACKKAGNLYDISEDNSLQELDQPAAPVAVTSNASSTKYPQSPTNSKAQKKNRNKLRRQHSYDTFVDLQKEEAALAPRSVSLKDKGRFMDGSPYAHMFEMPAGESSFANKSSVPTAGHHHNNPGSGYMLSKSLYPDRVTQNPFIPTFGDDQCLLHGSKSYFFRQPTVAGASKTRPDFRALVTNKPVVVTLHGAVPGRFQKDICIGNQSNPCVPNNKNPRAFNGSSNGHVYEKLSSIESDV
Source text: as §1
cDNA clones encoding the NR1A, NR2A, NR2B, NR2C and NR2D rat NMDA receptor subtypes were provided by Dr. P. H. Seeburg (see, Moriyoshi et al., Nature (Lond.) 354:31-37 (1991); Kutsuwada et al., Nature (Lond.) 358:36-41 (1992) Monyer et al., Science (Washington, D.C.) 256:1217-1221 (1992); Ikeda et al., FEBS Lett. 313:34-38 (1992); Ishii et al., J. Biol. Chem. 268:2836-2843 (1993) for details of these clones or their mouse homologs). The clones were transformed into appropriate host bacteria and plasmid preparations were made with conventional DNA purification techniques. A sample of each clone was linearized by restriction enzyme digestion and cRNA was synthesized with T3 RNA polymerase. The CRNA was diluted to 400 ng/μl and stored in 1 μl aliquots at −80° C. until injection.
Mature female Xenopus laevis were anaesthetized (20-40 min) using 0.15% 3-aminobenzoic acid ethyl ester (MS-222) and 2-4 ovarian lobes were surgically removed. Oocytes at developmental stages IV-VI (Dumont, J. N., J. Morphol. 136:153-180 (1972)), were dissected from the ovary still surrounded by enveloping ovarian tissues. Follicle-enclosed oocytes were micro-injected with 1:1 mixtures of cRNA:NR1A+NR2A, 2B, 2C or 2D; injecting ˜2,5, or 20 ng of RNA encoding each receptor subunit. […]
as §3, §4

NR1A/NR2C NMDA receptor = NR1A/NR2C NMDA receptor (Rattus norvegicus, UniProt P35439+Q00961); test: Electrophysiological assay, cloned NMDA receptor subunits expressed in Xenopus oocytes (1A/2C); format: cell-based; details: read-out: Subunits (IC50 (μM)) 1A/2C, mean IC50, inhibition of NMDA-activated membrane current responses, glutamate 100 μM + glycine
Source text: as §1, §2, §3, §4

NR1A/NR2D NMDA receptor = NR1A/NR2D NMDA receptor (Rattus norvegicus, UniProt P35439+Q62645); test: Electrophysiological assay, cloned NMDA receptor subunits expressed in Xenopus oocytes (1A/2D); format: cell-based; details: read-out: Subunits (IC50 (μM)) 1A/2D, mean IC50, inhibition of NMDA-activated membrane current responses, glutamate 100 μM + glycine
NR1A/NR2D NMDA receptor, sequence (Q62645 28-1323, other chains not shown): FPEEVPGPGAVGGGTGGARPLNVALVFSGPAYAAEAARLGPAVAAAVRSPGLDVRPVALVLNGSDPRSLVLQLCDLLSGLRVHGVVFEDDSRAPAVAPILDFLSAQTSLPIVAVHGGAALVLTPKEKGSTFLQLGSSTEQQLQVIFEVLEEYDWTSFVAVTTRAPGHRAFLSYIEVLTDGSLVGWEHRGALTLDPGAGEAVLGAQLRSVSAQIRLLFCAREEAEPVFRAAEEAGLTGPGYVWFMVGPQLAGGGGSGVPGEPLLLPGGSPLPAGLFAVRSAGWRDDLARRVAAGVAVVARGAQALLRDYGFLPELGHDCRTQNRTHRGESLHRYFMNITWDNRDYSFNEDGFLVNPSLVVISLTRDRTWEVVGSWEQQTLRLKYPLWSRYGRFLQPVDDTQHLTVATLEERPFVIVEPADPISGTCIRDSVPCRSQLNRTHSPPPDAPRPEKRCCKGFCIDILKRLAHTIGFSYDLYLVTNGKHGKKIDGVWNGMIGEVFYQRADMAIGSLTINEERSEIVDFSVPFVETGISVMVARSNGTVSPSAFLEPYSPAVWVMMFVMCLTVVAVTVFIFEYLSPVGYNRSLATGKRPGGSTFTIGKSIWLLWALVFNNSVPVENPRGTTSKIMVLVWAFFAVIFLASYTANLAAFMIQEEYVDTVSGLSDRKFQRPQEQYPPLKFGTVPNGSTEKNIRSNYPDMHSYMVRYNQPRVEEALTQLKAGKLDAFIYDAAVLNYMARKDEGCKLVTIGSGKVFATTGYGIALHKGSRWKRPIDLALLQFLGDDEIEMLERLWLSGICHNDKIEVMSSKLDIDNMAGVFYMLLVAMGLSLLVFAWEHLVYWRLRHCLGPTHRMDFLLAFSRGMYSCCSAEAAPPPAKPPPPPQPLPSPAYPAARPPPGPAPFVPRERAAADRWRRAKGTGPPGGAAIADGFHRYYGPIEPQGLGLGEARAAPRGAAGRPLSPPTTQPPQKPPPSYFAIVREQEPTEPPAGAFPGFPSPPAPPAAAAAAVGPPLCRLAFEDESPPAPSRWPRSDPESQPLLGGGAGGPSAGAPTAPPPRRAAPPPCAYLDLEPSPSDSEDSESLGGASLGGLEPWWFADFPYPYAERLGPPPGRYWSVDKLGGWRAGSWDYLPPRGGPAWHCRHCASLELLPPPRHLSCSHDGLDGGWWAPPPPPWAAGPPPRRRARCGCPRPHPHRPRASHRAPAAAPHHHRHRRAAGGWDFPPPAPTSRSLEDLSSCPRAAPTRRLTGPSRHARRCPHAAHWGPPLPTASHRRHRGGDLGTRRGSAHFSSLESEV
Source text: as §1, §2, §3, §4

[2] = mean IC50, inhibition of NMDA-activated membrane current responses, glutamate 100 μM + glycine, read-out: Subunits (IC50 (μM)) 1A/2B

SMILES	ED50 [1] [mg/kg]	activity against maximal electroshock (MES) [1]	also measured
Cc1ccc(CC2CCN(CCC#Cc3ccc(O)cc3)CC2)cc1 [Ex. 67, 4-{4-[4-(4-Methyl-benzyl)-piperidin-1-yl]-but-1-ynyl}-phenol]	6	potent activity	–
Cc1ccc(CC2(O)CCN(CCC#Cc3ccc(N)cc3)CC2)cc1 [Ex. 77, 1-(1-(4-Aminophenyl)-1-butyn-4-yl)-4-hydroxy-4-(4-methylbenzyl)piperidine]	0.4	–	–
CNc1ccc(C#CCCN2CCC(Cc3ccccc3)CC2)cc1 [Ex. 54, {4-[4-(4-Benzyl-piperidin-1-yl)-but-1-ynyl]-phenyl}-methyl-amine]	6.5	potent activity	–
Oc1ccc(C#CCCN2CCC(Cc3ccccc3)CC2)cc1 [Ex. 42, 4-[4-(4-Benzyl-piperidin-1-yl)-but-1-ynyl]-phenol]	2.5	potent activity	–
NCc1cccc(C#CCCN2CCC(Cc3ccccc3)CC2)c1 [Ex. 52, 3-[4-(4-Benzyl-piperidin-1-yl)-but-1-ynyl]-benzylamine]	–	–	IC50 (NR1A/NR2A NMDA receptor; mean IC50, inhibition of NMDA-activated membrane current responses, glutamate 100 μM + glycine, read-out: Subunits (IC50 (μM)) 1A/2A): 15 µM
CCCCNC(=N)Nc1cccc(C#CCCN2CCC(O)(c3ccc(Cl)cc3)CC2)c1 [Ex. 28, N-n-Butyl-N′-(3-(4-(4-(4-chlorophenyl)-4-hydroxy)piperidinyl)butynyl)phenylguanidine]	10	potent activity	melting point: 98 to 100 °C
Nc1ccc(C#CCN2CCC(Cc3ccccc3)CC2)cc1 [Ex. 63, 4-[3-(4-Benzyl-piperidin-1-yl)-prop-1-ynyl]-phenylamine]	–	–	IC50 (NR1A/NR2B NMDA receptor; [2]): 12 µM
O=[N+]([O-])c1ccc(C#CCCN2CCC(Cc3ccccc3)CC2)cc1 [Ex. 40, 4-Benzyl-1-[4-(4-nitro-phenyl)-but-3-ynyl]-piperidine]	–	–	IC50 (NR1A/NR2B NMDA receptor; [2]): 5 µM
Nc1cccc(C#CCCN2CCC(O)(c3ccc(Cl)cc3)CC2)c1 [Ex. 8, 1-[4-(3-Aminophenyl)-3-butynyl]-4-hydroxy-4-(4-chlorophenyl)piperidine]	10	potent activity	–
Cc1ccc(CC2CCN(CCC#Cc3ccc(N)cc3)CC2)cc1 [Ex. 39, 4-{4-[4-(4-Methyl-benzyl)-piperidin-1-yl]-but-1-ynyl}-phenylamine]	2.5	potent activity	–
CC(=O)Nc1ccc(C#CCCN2CCC(Cc3ccccc3)CC2)cc1 [Ex. 53, N-{4-[4-(4-Benzyl-piperidin-1-yl)-but-1-ynyl]-phenyl}-acetamide]	8	potent activity	–
NS(=O)(=O)c1ccc(C#CCCN2CCC(Cc3ccccc3)CC2)cc1 [Ex. 59, 4-[4-(4-Benzyl-piperidin-1-yl)-but-1-ynyl]-benzenesulfonamide]	> 5	–	–
C(#Cc1ccccc1)CCN1CCC(Cc2ccccc2)CC1 [Ex. 18, 4-Benzyl-1-(4-phenyl-3-butynyl)piperidine]	3.5	potent activity	–
Nc1ccc(C#CCCN2CCC(Cc3ccccc3)CC2)cc1 [Ex. 30, 1-(4-(4-Aminophenyl)-3-butynyl)-4-benzylpiperidine]	1.8	potent activity	–
Nc1cccc(C#CCCN2CC=C(c3ccccc3)CC2)c1 [Ex. 14, 1-[4-(5-Aminophenyl)-3-butynyl]-4-phenyl-1,2,5,6-tetrahydropyridine]	–	–	IC50 (NR1A/NR2A NMDA receptor; read-out: Subunits (IC50 (μM)) 1A/2A, mean IC50, inhibition of NMDA-activated membrane current responses, glutamate 100 μM + glycine): 40 µM; IC50 (NR1A/NR2B NMDA receptor; read-out: Subunits (IC50 (μM)) 1A/2B, mean IC50, inhibition of NMDA-activated membrane current responses, glutamate 100 μM + glycine): 30 µM; IC50 (NR1A/NR2C NMDA receptor): > 100 µM; IC50 (NR1A/NR2D NMDA receptor): > 100 µM

— US6448270B1, “4-substituted piperidine analogs and their use as subtype selective NMDA receptor antagonists” (Warner-Lambert Company, priority 1995, dated 2002)
